One experiment relates to Salmonella enteritidis. Description: Short-term pathogen challenge test, Salmonella enteritidis. It counts as cell-based. The conditions noted are these: positive control, 125 ppm; 48 h colonic incubation.
The test system of experiment [1] is adherent-invasive E. coli (AIEC). The experiment in a line: Short-term pathogen challenge test, AIEC. The conditions noted are these: positive control, 125 ppm; 48 h colonic incubation. It counts as cell-based, Escherichia coli.

As to `O=C(O)c1cn(C2CC2)c2cc(N3CCNCC3)c(F)cc2c1=O` [ciprofloxacin], in the experiment on Salmonella enteritidis, the “abundance of Salmonella enteritidis” value is reported as “strongly decreased abundance of Salmonella enteritidis”. Further, the “abundance of AIEC” value in experiment [1] is on record as “decreased abundance of AIEC”.

These data come from US20240016748A1, “DIRECT DELIVERY OF VITAMINS TO INHIBIT MICROBIAL PATHOGENS” (DSM IP ASSETS B.V., priority 2020, published 2024).
